From US10077261B2, “Imidazolin-5-one derivative useful as FASN inhibitors for the treatment of cancer” (Janssen Pharmaceutica NV, priority 2012, dated 2018)

How the values were obtained:
[1] = target: T1, hFASN enzyme (full length) (Homo sapiens, UniProt P49327); assay: Fatty Acid Synthase (FASN) inhibition scintillation proximity assay; type: biochemical; settings: for inhibition at 10 µM: read-out: Human FASN % inhibition @ 10 μM, 10 μM test compound; for IC50: read-out: Human FASN pIC50 (converted)
T1 construct: 10 μL hFASN enzyme (full length, 300 ng, purified in house); made in house
T1 sequence (P49327 whole entry): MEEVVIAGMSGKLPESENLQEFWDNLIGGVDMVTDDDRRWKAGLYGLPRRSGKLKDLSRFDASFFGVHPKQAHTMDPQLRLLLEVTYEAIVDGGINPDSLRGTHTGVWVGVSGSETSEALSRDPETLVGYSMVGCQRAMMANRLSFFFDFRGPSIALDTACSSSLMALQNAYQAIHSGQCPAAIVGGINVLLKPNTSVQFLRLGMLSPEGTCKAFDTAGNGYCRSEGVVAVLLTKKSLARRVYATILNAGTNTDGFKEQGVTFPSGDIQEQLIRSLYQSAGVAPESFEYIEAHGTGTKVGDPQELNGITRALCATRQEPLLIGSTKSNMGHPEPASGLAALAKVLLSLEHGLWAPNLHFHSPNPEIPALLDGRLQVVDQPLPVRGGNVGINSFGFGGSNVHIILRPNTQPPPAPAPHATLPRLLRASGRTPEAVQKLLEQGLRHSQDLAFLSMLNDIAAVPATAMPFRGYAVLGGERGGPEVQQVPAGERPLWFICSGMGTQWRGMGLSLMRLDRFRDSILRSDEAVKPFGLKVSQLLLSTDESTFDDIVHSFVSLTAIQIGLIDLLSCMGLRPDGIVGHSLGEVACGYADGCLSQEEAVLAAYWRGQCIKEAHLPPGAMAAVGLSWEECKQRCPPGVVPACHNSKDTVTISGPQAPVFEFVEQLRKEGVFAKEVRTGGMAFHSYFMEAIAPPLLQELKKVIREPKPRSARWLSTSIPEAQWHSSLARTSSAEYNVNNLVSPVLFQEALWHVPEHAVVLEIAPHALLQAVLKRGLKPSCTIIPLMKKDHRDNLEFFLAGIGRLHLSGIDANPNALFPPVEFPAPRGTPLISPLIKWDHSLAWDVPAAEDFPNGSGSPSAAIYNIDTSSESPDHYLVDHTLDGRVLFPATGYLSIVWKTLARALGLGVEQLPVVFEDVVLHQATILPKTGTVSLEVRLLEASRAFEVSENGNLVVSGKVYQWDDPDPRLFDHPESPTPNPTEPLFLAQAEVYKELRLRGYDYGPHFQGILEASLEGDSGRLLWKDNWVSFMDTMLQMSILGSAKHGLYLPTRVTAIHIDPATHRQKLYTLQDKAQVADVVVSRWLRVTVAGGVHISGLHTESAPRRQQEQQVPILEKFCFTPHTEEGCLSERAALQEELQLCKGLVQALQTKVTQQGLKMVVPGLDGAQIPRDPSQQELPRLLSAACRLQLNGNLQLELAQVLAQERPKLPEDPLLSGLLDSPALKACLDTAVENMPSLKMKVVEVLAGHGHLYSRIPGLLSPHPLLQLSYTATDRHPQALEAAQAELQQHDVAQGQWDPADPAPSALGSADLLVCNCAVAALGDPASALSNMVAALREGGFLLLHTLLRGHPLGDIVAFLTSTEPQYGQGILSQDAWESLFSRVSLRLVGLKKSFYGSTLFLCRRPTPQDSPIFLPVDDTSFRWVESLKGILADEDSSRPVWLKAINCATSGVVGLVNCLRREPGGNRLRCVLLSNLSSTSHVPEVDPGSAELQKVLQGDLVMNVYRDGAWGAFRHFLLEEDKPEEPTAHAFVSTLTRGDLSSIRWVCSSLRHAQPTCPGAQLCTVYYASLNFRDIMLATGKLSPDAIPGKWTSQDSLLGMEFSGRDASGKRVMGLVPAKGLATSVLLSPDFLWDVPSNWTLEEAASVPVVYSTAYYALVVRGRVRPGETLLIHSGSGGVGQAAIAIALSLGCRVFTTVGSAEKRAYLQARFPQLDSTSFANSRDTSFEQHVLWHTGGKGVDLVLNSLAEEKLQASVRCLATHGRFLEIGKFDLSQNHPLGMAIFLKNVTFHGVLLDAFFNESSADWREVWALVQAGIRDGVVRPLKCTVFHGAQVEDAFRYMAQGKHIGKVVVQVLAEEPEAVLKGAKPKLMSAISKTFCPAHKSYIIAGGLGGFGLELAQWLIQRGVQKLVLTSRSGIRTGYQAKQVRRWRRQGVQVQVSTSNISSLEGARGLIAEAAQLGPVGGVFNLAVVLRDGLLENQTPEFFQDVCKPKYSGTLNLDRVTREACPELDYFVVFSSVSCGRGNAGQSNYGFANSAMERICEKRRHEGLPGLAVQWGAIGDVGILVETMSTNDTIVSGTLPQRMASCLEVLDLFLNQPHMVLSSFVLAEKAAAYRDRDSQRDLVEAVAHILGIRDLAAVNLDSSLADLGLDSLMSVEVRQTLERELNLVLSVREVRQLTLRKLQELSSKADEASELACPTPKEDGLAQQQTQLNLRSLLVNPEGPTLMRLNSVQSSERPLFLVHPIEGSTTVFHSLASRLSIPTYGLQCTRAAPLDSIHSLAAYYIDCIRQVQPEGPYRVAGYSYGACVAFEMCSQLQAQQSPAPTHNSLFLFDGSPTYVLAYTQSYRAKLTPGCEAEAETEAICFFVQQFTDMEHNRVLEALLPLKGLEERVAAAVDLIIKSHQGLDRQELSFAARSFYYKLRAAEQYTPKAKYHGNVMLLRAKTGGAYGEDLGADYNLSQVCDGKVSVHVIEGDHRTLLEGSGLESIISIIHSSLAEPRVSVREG
How it was run: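 Full-length in-house purified enzyme (300 ng) was tested in 100 mM KH2PO4 pH 7.5, 1 mM DTT with ³H-acetyl-CoA and malonyl-CoA as substrates; compounds ranged 0.01–30 μM. Reactions were stopped with streptavidin imaging beads, read by LEADseeker at 610 nm, and fitted to a 4-parameter logistic curve.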

A2780 ovarian cells [2] = assay: A2780 ovarian cell proliferation assay in lipid reduced medium, with palmitate (MTT); type: cell-based; settings: Homo sapiens, A2780, 96 h; read-out: pIC50 A2780 Ovarian Cell, With Palmitate (converted)
How it was run: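 Seeded cells were switched next day to lipid-reduced serum, exposed to compound and 25 μM palmitate complexed with fatty-acid-free BSA, and incubated 96 h. Proliferation was then determined by MTT absorbance at 544 nm, with a best-fit curve of signal against concentration.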

A2780 ovarian cells [3] = assay: A2780 ovarian cell proliferation assay in lipid reduced medium, without palmitate (MTT); type: cell-based; settings: Homo sapiens, A2780, 96 h; read-out: pIC50 A2780 Ovarian Cell, Without Palmitate (converted)
[4] = tested on: LNCaP-Vancouver prostate cells; assay: In vitro LNCaP Vancouver prostate cell proliferation assay in lipid reduced medium; type: cell-based; settings: read-out: pIC50 LNCaP_Vancouver prostate cell (converted)
[5] = tested on: PC-3M-Luc-C6 prostate cells; assay: In vitro PC-3M-Luc-C6 prostate cell proliferation assay in lipid reduced medium; type: cell-based; settings: 96 h, read-out: pIC50 PC-3M-Luc-C6 prostate cell (converted)
[6] = target: Fatty Acid Synthase Keto-reductase Domain (FASN KR) (Homo sapiens, UniProt P49327); assay: Fatty Acid Synthase keto-reductase domain (FASN KR) inhibition, NADPH oxidation at 340 nm
Fatty Acid Synthase Keto-reductase Domain (FASN KR), sequence (P49327 whole entry, the tested form may be a part): as the sequence (P49327 whole entry) above
Experimental: After 20 minutes incubation at room temperature the plate was measured again (T2).
The decrease in absorbance was calculated as (Absorbance before incubation T1)−(Absorbance following incubation T2).
A plot of Controlmin versus test compound concentration was fitted to a 4-parameter logistic curve using a non-linear least squares regression method.

| Structure (SMILES) | inhibition at 10 µM [1] [%] | IC50 [1] [µM] | IC50 (A2780 ovarian cells [2]) [µM] | IC50 (A2780 ovarian cells [3]) [µM] | IC50 [4] [µM] | IC50 [5] [µM] | IC50 [6] [µM] |
| --- | --- | --- | --- | --- | --- | --- | --- |
| N#Cc1ccc2ccc(-c3ccc(C4=NC5(CC5)C(=O)N4CC4CN(C(=O)C5CC5)C4)c(F)c3)cc2c1 [compound 616, 7-[4-(6-{[1-(Cyclopropylcarbonyl)azetidin-3-yl]methyl}-7-oxo-4,6-diazaspiro[2.4]hept-4-en-5-yl)-3-fluorophenyl]naphthalene-2-carbonitrile] | 94 | 0.513 | > 10 | 1.82 | 3.16 | > 10 | 1.55 |
| CC1(C(=O)N2CC(CN3C(=O)C4(CC4)N=C3c3ccc(-c4ccc5cc(C#N)ccc5c4)cc3F)C2)CC1 [compound 385, 6-(3-fluoro-4-(6-((1-(1-methylcyclopropanecarbonyl)azetidin-3-yl)methyl)-7-oxo-4,6-diazaspiro[2.4]hept-4-en-5-yl)phenyl)-2-naphthonitrile] | 103 | 0.0229 | ~2.57 | ~0.00363 | 0.0186 | ~0.00479 | 0.0437 |
| Cn1ncc2cc(-c3ccc(C4=NC5(CC5)C(=O)N4CC4CN(C(=O)C5(F)CC5)C4)c(F)c3)ccc21 [compound 637, 6-({1-[(1-Fluorocyclopropyl)carbonyl]azetidin-3-yl}methyl)-5-[2-fluoro-4-(1-methyl-1H-indazol-5-yl)phenyl]-4,6-diazaspiro[2.4]hept-4-en-7-one] | 99 | 0.12 | > 10 | 0.0851 | 1.82 | ~0.234 | 0.871 |
| CC(C)Cn1cc(-c2ccc(-c3ccc(C4=NC5(CC5)C(=O)N4CC4CN(C(=O)C5CC5)C4)cc3)cc2)cn1 [compound 544, 6-{[1-(Cyclopropylcarbonyl)azetidin-3-yl]methyl}-5-{4′-[1-(2-methylpropyl)-1H-pyrazol-4-yl]biphenyl-4-yl}-4,6-diazaspiro[2.4]hept-4-en-7-one] | 98 | 0.204 | 1.62 | 0.0525 | 0.776 | 0.141 | 0.724 |
| Cc1cc2cc(-c3ccc(C4=NC5(CC5)C(=O)N4C[C@@H]4CCN(C(=O)C5CC5)C4)c(F)c3)ccc2[nH]1 [compound 319, (R)-6-((1-(cyclopropanecarbonyl)pyrrolidin-3-yl)methyl)-5-(2-fluoro-4-(2-methyl-1H-indol-5-yl)phenyl)-4,6-diazaspiro[2.4]hept-4-en-7-one] | 105 | 0.0288 | > 10 | ~0.0135 | 0.112 | 0.0186 | 0.0537 |
| Cn1cc(-c2ccc(-c3ccc(C4=NC5(CC5)C(=O)N4CC4CN(C(=O)C5CC5)C4)cc3)nc2)cn1 [compound 534, 6-{[1-(Cycloprropylcarbonyl)azetidin-3-yl]methyl}-5-{4-[5-(1-methyl-1H-pyrazol-4-yl)pyridin-2-yl]phenyl}-4,6-diazaspiro[2.4]hept-4-en-7-one] | 95 | 0.162 | > 10 | 0.776 | ~5.62 | 1 | 1.38 |
| Cn1ncc2cc(-c3ccc(C4=NC5(CCN(C(=O)C(F)(F)F)CC5)C(=O)N4C[C@@H]4CCN(C(=O)C5CC5)C4)cc3)ccc21 [compound 752, 3-{[(3R)-1-(Cyclopropylcarbonyl)pyrrolidin-3-yl]methyl}-2-[4-(1-methyl-1H-indazol-5-yl)phenyl]-8-(trifluoroacetyl)-1,3,8-triazaspiro[4.5]dec-1-en-4-one] | 91 | 0.776 | > 10 | 1.62 | 3.98 | 1.91 | 1.05 |
| Cc1cc(-c2ccc3cc(C#N)ccc3c2)ccc1C1=NC2(CC2)C(=O)N1CC1CN(C(=O)C2CCO2)C1 (centres unmarked) [compound 224, 6-(3-methyl-4-(6-((1-(oxetane-2-carbonyl)azetidin-3-yl)methyl)-7-oxo-4,6-diazaspiro[2.4]hept-4-en-5-yl)phenyl)-2-naphthonitrile] | 103 | 0.0251 | ~10 | 0.00776 | 0.0562 | 0.0126 | 0.0776 |
| N#Cc1cc2cc(-c3ccc(C4=NC5(CC5)C(=O)N4C[C@@H]4CCN(C(=O)C5CC5)C4)c(F)c3)ccc2o1 [compound 254, (R)-5-(4-(6-((1-(cyclopropanecarbonyl)pyrrolidin-3-yl)methyl)-7-oxo-4,6-diazspiro[2.4]hept-4-en-5-yl)-3-fluorophenyl)benzofuran-2-carbonitrile] | 100 | 0.0295 | > 10 | 0.437 | 1.38 | 0.224 | 0.0501 |
| Cn1cc(-c2ccc(-c3ccc(C4=NC5(CCOC5)C(=O)N4C[C@@H]4CCN(C(=O)[C@H]5CCCO5)C4)cc3)cc2)cn1 (stereo partly drawn) [compound 678, 2-[4′-(1-Methyl-1H-pyrazol-4-yl)biphenyl-4-yl]-3-({(3R)-1-[(2R)-tetrahydro-furan-2-ylcarbonyl]pyrrolidin-3-yl}methyl)-7-oxa-1,3-diazaspiro[4.4]non-1-en-4-one] | 95 | 0.372 | > 10 | 0.676 | 3.31 | 0.891 | 0.832 |
| Cc1cc(-c2ccc3[nH]ccc3c2)ccc1C1=NC2(CC2)C(=O)N1C[C@@H]1CCN(C(=O)C2CC2)C1 [compound 284, (R)-5-(4-(1H-indol-5-yl)-2-methylphenyl)-6-((1-(cyclopropanecarbonyl)pyrrolidin-3-yl)methyl)-4,6-diazaspiro[2.4]hept-4-en-7-one] | 106 | 0.0257 | > 10 | ~0.0234 | 0.038 | 0.0182 | 0.0309 |
| Cc1cc(-c2ccc3cc(C#N)ccc3c2)ccc1C1=NC2(CC2)C(=O)N1CC1CN(C(=O)C2(C)CC2)C1 [compound 269, 6-(3-methyl-4-(6-((1-(1-methylcyclopropanecarbbonyl)azetidin-3-yl)methyl)-7-oxo-4,6-diazaspiro[2.4]hept-4-en-5-yl)phenyl)-2-naphthonitrile] | 102 | 0.0224 | 4.27 | ~0.00372 | 0.0282 | ~0.00832 | 0.0661 |
| O=C(C1CC1)N1CC[C@@H](CN2C(=O)C3(CC3)N=C2c2ccc(-c3ccc4c(c3)COCC4)cc2)C1 [compound 453, 6-{[(3R)-1-(Cyclopropylcarbonyl)pyrrolidin-3-yl]methyl}-5-[4-(3,4-dihydro-1H-2-benzopyran-7-yl)phenyl]-4,6-diazaspiro[2.4]hept-4-en-7-one] | 94 | 0.245 | > 10 | 2.14 | 2.95 | 1.62 | 1.12 |
| Cn1cnc2cc(-c3ccc(C4=NC5(CC5)C(=O)N4CC4CN(C(=O)C5CC5)C4)c(F)c3)ccc21 [compound 348, 6-((1-(cyclopropanecarbonyl)azetidin-3-yl)methyl)-5-(2-fluoro-4-(1-methyl-1H-benzo[d]imidazol-5-yl)phenyl)-4,6-diazaspiro[2.4]hept-4-en-7-one] | 96 | 0.0631 | > 10 | 0.0288 | 0.282 | 0.0407 | 0.0871 |
| O=C(C1CC1)N1CC(CN2C(=O)C3(CC3)N=C2c2ccc(-c3nc4cc(F)c(F)cc4s3)cc2F)C1 [compound 639, 6-{[1-(Cyclopropylcarbonyl)azetidin-3-yl]methyl}-5-[4-(5,6-difluoro-1,3-benzothiazol-2-yl)-2-fluorophenyl]-4,6-diazaspiro[2.4]hept-4-en-7-one] | 97 | 0.282 | > 10 | ~0.363 | 2.34 | 0.794 | 1.45 |
| Cc1cc(C2=NC3(CC3)C(=O)N2C[C@@H]2CCN(C(=O)C3CC3)C2)ccc1-c1cccc2[nH]ncc12 [compound 445, 6-{[(3R)-1-(Cyclopropylcarbonyl)pyrrolidin-3-yl]methyl}-5-[4-(1H-indazol-4-yl)-3-methylphenyl]-4,6-diazaspiro[2.4]hept-4-en-7-one] | 100 | 0.182 | > 10 | 0.0676 | 1.17 | 0.234 | 0.209 |
| O=C(C1CC1)N1CC[C@@H](CN2C(=O)C3(CC3)N=C2c2ccc(-c3nc4ccccc4o3)cc2)C1 [compound 307, (R)-5-(4-(benzo[d]oxazol-2-yl)phenyl)-6-((1-(cyclopropanecarbonyl)pyrrolidin-3-yl)methyl)-4,6-diazaspiro[2.4]hept-4-en-7-one] | 100 | 0.0676 | > 10 | 0.0912 | 0.661 | 0.102 | 0.145 |
